Test results published in the supplement of paper PMC10307832.

Columns and labels:
Assay in all cases: relative viability (nuclei count vs DMSO), 5 days (fraction); higher = more cells survive
RERF-LC-KJ = system: RERF-LC-KJ
Outline: (§1)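 Lung cancer cell lines were pin-tool dosed in 1536-well plates on the day after seeding, with either a lone drug or a fixed anchor-drug dose plus five library-drug doses (not always all listed) in √10 steps. Nuclei were counted on 4× images after 5 days. Relative viability is the ratio of treated-well to vehicle-well nuclei counts, with each value a median of duplicate plates.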

NCI-H1651 = system: NCI-H1651
Outline: as §1

CAL-12T = system: CAL-12T
Outline: as §1

EPLC-272H = system: EPLC-272H
Outline: as §1

ChaGo-K-1 = system: ChaGo-K-1
Outline: as §1

HCC-78 = system: HCC-78
Outline: as §1

NCI-H1734 = system: NCI-H1734
Outline: as §1

NCI-H460 = system: NCI-H460
Outline: as §1

NCI-H1944 = system: NCI-H1944
Outline: as §1

NCI-H3122 = system: NCI-H3122
Outline: as §1

NCI-H2087 = system: NCI-H2087
Outline: as §1

UMC-11 = system: UMC-11
Outline: as §1

NCI-H2228 = system: NCI-H2228
Outline: as §1

NCI-H1793 = system: NCI-H1793
Outline: as §1

ABC-1 = system: ABC-1
Outline: as §1

NCI-H1395 = system: NCI-H1395
Outline: as §1

NCI-H2170 = system: NCI-H2170
Outline: as §1

LU99A = system: LU99A
Outline: as §1

HCC-366 = system: HCC-366
Outline: as §1

LC-2-ad = system: LC-2-ad
Outline: as §1

NCI-H2405 = system: NCI-H2405
Outline: as §1

PC-3 [JPC-3] = system: PC-3 [JPC-3]
Outline: as §1

LOU-NH91 = system: LOU-NH91
Outline: as §1

NCI-H1755 = system: NCI-H1755
Outline: as §1

Molecule `CC(C)Oc1cc(Nc2nc(N[C@@H](C)c3ccc(F)cn3)ncc2Cl)n[nH]1` [AZ23] + O=C(c1cc(Cc2n[nH]c(=O)c3ccccc23)ccc1F)N1CCN(C(=O)C2CC2)CC1 [Olaparib] (partner 8 µM) has a relative viability (RERF-LC-KJ; first compound 0.01 µM) of 1.06, a relative viability (RERF-LC-KJ; first compound 0.03162 µM) of 0.875 and a relative viability (RERF-LC-KJ; first compound 0.3162 µM) of 0.917. For the same molecule, the relative viability (NCI-H1651; first compound 0.01 µM) was 0.182, the relative viability (NCI-H1651; first compound 0.03162 µM) was 0.166 and the relative viability (NCI-H1651; first compound 0.3162 µM) was 0.19. For the same molecule, the relative viability (CAL-12T; first compound 0.01 µM) was 0.752, the relative viability (CAL-12T; first compound 0.03162 µM) was 0.747 and the relative viability (CAL-12T; first compound 0.3162 µM) was 0.745. The relative viability (EPLC-272H; first compound 0.03162 µM) was 0.563, the relative viability (EPLC-272H; first compound 0.3162 µM) was 0.901 and the relative viability (ChaGo-K-1; first compound 0.01 µM) was 0.519. The relative viability (ChaGo-K-1; first compound 0.03162 µM) was 0.407, the relative viability (ChaGo-K-1; first compound 0.3162 µM) was 0.406 and the relative viability (HCC-78; first compound 0.01 µM) was 0.623. It also gave a relative viability (HCC-78; first compound 0.03162 µM) of 0.834, a relative viability (HCC-78; first compound 0.3162 µM) of 0.669 and a relative viability (NCI-H1734; first compound 0.01 µM) of 0.628. It also gave a relative viability (NCI-H1734; first compound 0.03162 µM) of 0.673, a relative viability (NCI-H1734; first compound 0.3162 µM) of 0.6 and a relative viability (NCI-H460; first compound 0.01 µM) of 0.24. For the same molecule, the relative viability (NCI-H460; first compound 0.03162 µM) was 0.518, the relative viability (NCI-H460; first compound 0.3162 µM) was 0.481 and the relative viability (NCI-H1944; first compound 0.01 µM) was 0.443. For the same molecule, the relative viability (NCI-H1944; first compound 0.03162 µM) was 0.472, the relative viability (NCI-H1944; first compound 0.3162 µM) was 0.448 and the relative viability (NCI-H3122; first compound 0.01 µM) was 0.627. It also gave a relative viability (NCI-H3122; first compound 0.03162 µM) of 0.715, a relative viability (NCI-H3122; first compound 0.3162 µM) of 0.684 and a relative viability (NCI-H2087; first compound 0.01 µM) of 0.819. It also gave a relative viability (NCI-H2087; first compound 0.03162 µM) of 0.73, a relative viability (NCI-H2087; first compound 0.3162 µM) of 0.642 and a relative viability (UMC-11; first compound 0.01 µM) of 0.392. It also gave a relative viability (UMC-11; first compound 0.03162 µM) of 0.422, a relative viability (UMC-11; first compound 0.3162 µM) of 0.372 and a relative viability (NCI-H2228; first compound 0.01 µM) of 0.53. The relative viability (NCI-H2228; first compound 0.03162 µM) was 0.775, the relative viability (NCI-H2228; first compound 0.3162 µM) was 0.589 and the relative viability (NCI-H1793; first compound 0.01 µM) was 0.756. For the same molecule, the relative viability (NCI-H1793; first compound 0.03162 µM) was 1.1, the relative viability (NCI-H1793; first compound 0.3162 µM) was 0.85 and the relative viability (ABC-1; first compound 0.01 µM) was 0.971. For the same molecule, the relative viability (ABC-1; first compound 0.03162 µM) was 0.781, the relative viability (ABC-1; first compound 0.3162 µM) was 0.673 and the relative viability (NCI-H1395; first compound 0.03162 µM) was 0.424. It also gave a relative viability (NCI-H1395; first compound 0.3162 µM) of 0.452, a relative viability (NCI-H2170; first compound 0.01 µM) of 0.649 and a relative viability (NCI-H2170; first compound 0.03162 µM) of 0.658. For the same molecule, the relative viability (NCI-H2170; first compound 0.3162 µM) was 0.619, the relative viability (LU99A; first compound 0.01 µM) was 0.233 and the relative viability (LU99A; first compound 0.03162 µM) was 0.237. It also gave a relative viability (LU99A; first compound 0.3162 µM) of 0.328, a relative viability (HCC-366; first compound 0.01 µM) of 0.19 and a relative viability (HCC-366; first compound 0.03162 µM) of 0.451. The relative viability (HCC-366; first compound 0.3162 µM) was 0.511, the relative viability (LC-2-ad; first compound 0.01 µM) was 0.811 and the relative viability (LC-2-ad; first compound 0.03162 µM) was 0.772. The relative viability (LC-2-ad; first compound 0.3162 µM) was 0.824, the relative viability (NCI-H2405; first compound 0.01 µM) was 0.855 and the relative viability (NCI-H2405; first compound 0.03162 µM) was 0.903. The relative viability (NCI-H2405; first compound 0.3162 µM) was 0.831, the relative viability (PC-3 [JPC-3]; first compound 0.01 µM) was 1.35 and the relative viability (PC-3 [JPC-3]; first compound 0.03162 µM) was 1.41. For the same molecule, the relative viability (PC-3 [JPC-3]; first compound 0.3162 µM) was 1.17, the relative viability (LOU-NH91; first compound 0.01 µM) was 0.958 and the relative viability (LOU-NH91; first compound 0.03162 µM) was 0.961. For the same molecule, the relative viability (LOU-NH91; first compound 0.3162 µM) was 0.94, the relative viability (NCI-H1755; first compound 0.01 µM) was 0.962 and the relative viability (NCI-H1755; first compound 0.03162 µM) was 0.955. The relative viability (NCI-H1755; first compound 0.3162 µM) was 1.
